In publication PMC12621043, “Un-LOK-ing a New Approach for Conformational Selective Targeting of STK10 (LOK)” (ACS Medicinal Chemistry Letters, 2025):

Columns and labels:
AAK1 (AAK1A) = biological target: T1, AAK1 (AAK1A) (Homo sapiens, UniProt Q2M2I8); experiment: DSF Tm panel; type: binding; details: 10 μM compound
T1 construct: purchased in-house DSF kinase panel (SGC-style construct names; the trailing letter is the construct ID)

STK10 [1] = biological target: T2, STK10 (Homo sapiens, UniProt O94804); experiment: DSF Tm panel; type: binding; details: 10 μM compound
T2 construct: purchased in-house DSF kinase panel (SGC-style construct names; the trailing letter is the construct ID)

CAMKK2B = biological target: T3, CAMKK2B (Homo sapiens, UniProt Q96RR4); experiment: DSF Tm panel; type: binding; details: 10 μM compound
T3 construct: purchased in-house DSF kinase panel (SGC-style construct names; the trailing letter is the construct ID)

FESA = biological target: T4, FESA (Homo sapiens, UniProt P07332); experiment: DSF Tm panel; type: binding; details: 10 μM compound
T4 construct: purchased in-house DSF kinase panel (SGC-style construct names; the trailing letter is the construct ID)

STK17BA = biological target: T5, STK17BA (Homo sapiens, UniProt O94768); experiment: DSF Tm panel; type: binding; details: 10 μM compound
T5 construct: purchased in-house DSF kinase panel (SGC-style construct names; the trailing letter is the construct ID)
T5 sequence (O94768 25-329): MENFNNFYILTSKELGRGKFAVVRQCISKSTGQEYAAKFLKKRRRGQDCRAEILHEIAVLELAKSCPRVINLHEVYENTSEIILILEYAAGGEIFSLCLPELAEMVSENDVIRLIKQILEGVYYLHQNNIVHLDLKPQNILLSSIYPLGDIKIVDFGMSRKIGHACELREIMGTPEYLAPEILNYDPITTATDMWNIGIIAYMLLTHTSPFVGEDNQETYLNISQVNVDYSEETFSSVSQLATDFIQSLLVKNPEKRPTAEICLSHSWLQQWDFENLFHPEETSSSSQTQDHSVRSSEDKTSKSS

EPHA2 (EPHA2A) = biological target: T6, EPHA2 (EPHA2A) (Homo sapiens, UniProt P29317); experiment: DSF Tm panel; type: binding; details: 10 μM compound
T6 construct: purchased in-house DSF kinase panel (SGC-style construct names; the trailing letter is the construct ID)
T6 sequence (P29317 596-900): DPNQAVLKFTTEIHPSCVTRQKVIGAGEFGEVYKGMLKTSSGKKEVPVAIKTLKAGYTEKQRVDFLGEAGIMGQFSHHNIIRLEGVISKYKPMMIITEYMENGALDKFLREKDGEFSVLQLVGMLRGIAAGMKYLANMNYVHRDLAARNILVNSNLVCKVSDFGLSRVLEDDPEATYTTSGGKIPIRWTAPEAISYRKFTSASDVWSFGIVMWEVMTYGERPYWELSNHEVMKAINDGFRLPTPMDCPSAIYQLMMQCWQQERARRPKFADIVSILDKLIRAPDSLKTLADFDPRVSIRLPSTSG

GSG2A = biological target: T7, GSG2A (Homo sapiens, UniProt Q8TF76); experiment: DSF Tm panel; type: binding; details: 10 μM compound
T7 construct: purchased in-house DSF kinase panel (SGC-style construct names; the trailing letter is the construct ID)
T7 sequence (Q8TF76 465-798): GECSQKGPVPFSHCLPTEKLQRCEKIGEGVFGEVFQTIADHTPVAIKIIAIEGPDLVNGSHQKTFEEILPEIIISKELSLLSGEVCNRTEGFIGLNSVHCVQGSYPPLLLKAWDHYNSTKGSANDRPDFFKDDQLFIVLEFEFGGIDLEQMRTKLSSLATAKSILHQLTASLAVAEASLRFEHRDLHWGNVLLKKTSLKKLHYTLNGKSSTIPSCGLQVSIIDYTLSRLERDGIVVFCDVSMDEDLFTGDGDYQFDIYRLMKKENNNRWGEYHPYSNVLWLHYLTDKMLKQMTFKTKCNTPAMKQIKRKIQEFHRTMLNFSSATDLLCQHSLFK

CAMK2DA = biological target: T8, CAMK2DA (Homo sapiens, UniProt Q13557); experiment: DSF Tm panel; type: binding; details: 10 μM compound
T8 construct: purchased in-house DSF kinase panel (SGC-style construct names; the trailing letter is the construct ID)

NEK1A = biological target: T9, NEK1A (Homo sapiens, UniProt Q96PY6); experiment: DSF Tm panel; type: binding; details: 10 μM compound
T9 construct: purchased in-house DSF kinase panel (SGC-style construct names; the trailing letter is the construct ID)
T9 sequence (Q96PY6 1-328): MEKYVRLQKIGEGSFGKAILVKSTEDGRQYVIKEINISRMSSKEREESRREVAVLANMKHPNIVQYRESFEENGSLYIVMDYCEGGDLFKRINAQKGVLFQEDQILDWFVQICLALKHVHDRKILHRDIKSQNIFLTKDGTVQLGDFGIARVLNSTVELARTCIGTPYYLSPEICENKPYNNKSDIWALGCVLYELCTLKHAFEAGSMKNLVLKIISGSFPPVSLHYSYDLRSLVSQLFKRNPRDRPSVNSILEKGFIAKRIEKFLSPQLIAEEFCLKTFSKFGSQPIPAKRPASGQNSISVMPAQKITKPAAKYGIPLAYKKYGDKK

MAPK13A = biological target: T10, MAPK13A (Homo sapiens, UniProt O15264); experiment: DSF Tm panel; type: binding; details: 10 μM compound
T10 construct: purchased in-house DSF kinase panel (SGC-style construct names; the trailing letter is the construct ID)
T10 sequence (O15264 1-365): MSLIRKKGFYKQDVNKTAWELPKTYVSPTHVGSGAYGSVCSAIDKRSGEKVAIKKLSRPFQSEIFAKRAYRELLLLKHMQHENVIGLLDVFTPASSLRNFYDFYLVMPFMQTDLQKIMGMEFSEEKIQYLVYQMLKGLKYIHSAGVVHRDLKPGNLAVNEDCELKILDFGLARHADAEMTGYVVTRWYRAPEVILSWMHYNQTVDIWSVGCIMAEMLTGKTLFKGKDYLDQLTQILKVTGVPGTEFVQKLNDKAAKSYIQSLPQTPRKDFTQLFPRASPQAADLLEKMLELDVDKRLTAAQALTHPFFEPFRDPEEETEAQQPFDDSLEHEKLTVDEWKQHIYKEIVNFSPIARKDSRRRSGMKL

AKT3A = biological target: T11, AKT3A (Homo sapiens, UniProt Q9Y243); experiment: DSF Tm panel; type: binding; details: 10 μM compound
T11 construct: purchased in-house DSF kinase panel (SGC-style construct names; the trailing letter is the construct ID)

MAPK1A = biological target: T12, MAPK1A (Homo sapiens, UniProt P28482); experiment: DSF Tm panel; type: binding; details: 10 μM compound
T12 construct: purchased in-house DSF kinase panel (SGC-style construct names; the trailing letter is the construct ID)

EPHA7A = biological target: T13, EPHA7A (Homo sapiens, UniProt Q15375); experiment: DSF Tm panel; type: binding; details: 10 μM compound
T13 construct: purchased in-house DSF kinase panel (SGC-style construct names; the trailing letter is the construct ID)

CDC42BPAA = experiment: DSF Tm panel; type: binding; details: 10 μM compound
STK10 [2] = biological target: T2, STK10; experiment: PhosphoSens in vitro activity assay; type: biochemical; details: ATP 160 μM
SLK = SLK (Homo sapiens, UniProt Q9H2G2); experiment: DSF Tm panel; type: binding; set-up: purchased in-house DSF kinase panel (SGC-style construct names; the trailing letter is the construct ID); details: 10 μM compound

T13 sequence (Q15375 590-899): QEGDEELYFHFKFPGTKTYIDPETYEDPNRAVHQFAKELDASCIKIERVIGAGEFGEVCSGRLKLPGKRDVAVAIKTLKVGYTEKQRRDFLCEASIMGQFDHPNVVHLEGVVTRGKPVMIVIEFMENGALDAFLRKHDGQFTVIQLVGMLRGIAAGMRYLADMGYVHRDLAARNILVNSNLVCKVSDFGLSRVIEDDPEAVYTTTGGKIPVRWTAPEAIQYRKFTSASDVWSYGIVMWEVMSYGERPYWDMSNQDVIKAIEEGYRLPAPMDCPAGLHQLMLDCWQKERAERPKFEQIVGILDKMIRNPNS
T3 sequence (Q96RR4 161-449): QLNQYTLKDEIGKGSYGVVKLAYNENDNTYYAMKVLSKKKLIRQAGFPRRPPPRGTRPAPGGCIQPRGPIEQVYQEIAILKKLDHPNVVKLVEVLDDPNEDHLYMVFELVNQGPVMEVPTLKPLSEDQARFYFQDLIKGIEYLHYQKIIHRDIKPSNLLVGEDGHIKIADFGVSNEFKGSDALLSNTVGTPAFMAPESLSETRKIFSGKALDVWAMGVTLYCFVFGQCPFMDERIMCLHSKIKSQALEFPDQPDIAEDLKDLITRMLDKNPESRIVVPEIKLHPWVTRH
T4 sequence (P07332 whole entry): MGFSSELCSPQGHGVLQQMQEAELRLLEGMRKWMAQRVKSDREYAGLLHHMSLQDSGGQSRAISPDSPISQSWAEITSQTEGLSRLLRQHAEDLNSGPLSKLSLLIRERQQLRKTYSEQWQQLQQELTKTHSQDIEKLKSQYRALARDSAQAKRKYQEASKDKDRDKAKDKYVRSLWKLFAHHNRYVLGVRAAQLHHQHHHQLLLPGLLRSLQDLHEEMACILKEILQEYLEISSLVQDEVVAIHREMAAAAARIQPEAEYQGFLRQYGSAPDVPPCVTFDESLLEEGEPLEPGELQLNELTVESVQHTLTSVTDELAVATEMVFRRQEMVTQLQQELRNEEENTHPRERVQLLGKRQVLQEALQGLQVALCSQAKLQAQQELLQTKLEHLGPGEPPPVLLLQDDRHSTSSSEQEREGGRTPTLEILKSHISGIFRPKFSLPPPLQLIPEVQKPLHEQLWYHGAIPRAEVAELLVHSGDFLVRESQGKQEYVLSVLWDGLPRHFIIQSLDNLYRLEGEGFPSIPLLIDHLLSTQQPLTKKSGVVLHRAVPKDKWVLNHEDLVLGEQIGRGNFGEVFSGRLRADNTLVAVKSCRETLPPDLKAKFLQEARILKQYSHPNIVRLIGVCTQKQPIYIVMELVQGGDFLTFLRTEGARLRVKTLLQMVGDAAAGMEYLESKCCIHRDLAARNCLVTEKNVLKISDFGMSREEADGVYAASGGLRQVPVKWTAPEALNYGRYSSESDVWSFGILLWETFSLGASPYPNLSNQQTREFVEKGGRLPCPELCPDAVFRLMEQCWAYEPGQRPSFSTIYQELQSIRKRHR
T11 sequence (Q9Y243 148-479): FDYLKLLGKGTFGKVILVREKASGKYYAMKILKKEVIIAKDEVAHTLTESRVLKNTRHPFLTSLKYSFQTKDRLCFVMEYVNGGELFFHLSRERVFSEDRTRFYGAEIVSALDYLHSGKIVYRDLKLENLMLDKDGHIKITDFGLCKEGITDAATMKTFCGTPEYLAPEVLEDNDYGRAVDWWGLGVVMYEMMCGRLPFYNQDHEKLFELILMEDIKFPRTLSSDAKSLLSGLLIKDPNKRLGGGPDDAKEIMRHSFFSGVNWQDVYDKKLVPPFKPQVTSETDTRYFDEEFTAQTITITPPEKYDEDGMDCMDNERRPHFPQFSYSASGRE
T12 sequence (P28482 whole entry): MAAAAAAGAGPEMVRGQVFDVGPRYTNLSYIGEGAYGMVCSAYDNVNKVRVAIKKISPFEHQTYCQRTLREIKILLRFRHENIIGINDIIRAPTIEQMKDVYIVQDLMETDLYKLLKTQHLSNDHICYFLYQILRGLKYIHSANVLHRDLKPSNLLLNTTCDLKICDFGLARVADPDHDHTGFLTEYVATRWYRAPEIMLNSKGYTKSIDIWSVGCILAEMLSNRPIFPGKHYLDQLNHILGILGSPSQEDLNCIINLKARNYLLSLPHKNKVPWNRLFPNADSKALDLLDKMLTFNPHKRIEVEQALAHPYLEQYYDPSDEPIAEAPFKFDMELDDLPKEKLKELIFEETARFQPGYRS
T1 sequence (Q2M2I8 27-365): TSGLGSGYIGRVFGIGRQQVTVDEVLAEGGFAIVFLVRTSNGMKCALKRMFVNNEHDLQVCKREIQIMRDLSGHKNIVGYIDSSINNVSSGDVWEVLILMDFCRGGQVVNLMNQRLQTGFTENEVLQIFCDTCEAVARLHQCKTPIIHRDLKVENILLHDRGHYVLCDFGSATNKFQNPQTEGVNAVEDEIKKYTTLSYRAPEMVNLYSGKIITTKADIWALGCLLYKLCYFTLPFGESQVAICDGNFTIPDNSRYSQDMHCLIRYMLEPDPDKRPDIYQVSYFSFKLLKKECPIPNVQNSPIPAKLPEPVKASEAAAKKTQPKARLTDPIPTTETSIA
T2 sequence (O94804 18-317 limits assumed): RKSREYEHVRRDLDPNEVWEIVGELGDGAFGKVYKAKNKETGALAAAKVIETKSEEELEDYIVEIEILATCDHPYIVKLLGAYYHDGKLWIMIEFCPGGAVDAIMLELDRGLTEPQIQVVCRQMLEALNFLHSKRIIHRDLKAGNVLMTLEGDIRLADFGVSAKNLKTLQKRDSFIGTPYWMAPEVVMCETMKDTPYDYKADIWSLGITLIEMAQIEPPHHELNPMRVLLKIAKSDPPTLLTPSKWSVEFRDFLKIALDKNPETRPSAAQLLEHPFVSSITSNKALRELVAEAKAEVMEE
T8 sequence (Q13557 11-309): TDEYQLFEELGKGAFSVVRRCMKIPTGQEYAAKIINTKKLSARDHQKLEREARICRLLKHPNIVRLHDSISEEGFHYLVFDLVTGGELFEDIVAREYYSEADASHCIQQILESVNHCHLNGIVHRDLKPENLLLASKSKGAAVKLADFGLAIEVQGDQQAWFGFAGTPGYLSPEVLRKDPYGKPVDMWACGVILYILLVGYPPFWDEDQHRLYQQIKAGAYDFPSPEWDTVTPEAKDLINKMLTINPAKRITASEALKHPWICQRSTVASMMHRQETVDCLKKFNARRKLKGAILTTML

Row | Compound | ΔTm at 10 µM (AAK1 (AAK1A)) [°C] | ΔTm at 10 µM (STK10 [1]) [°C] | ΔTm at 10 µM (CAMKK2B) [°C] | ΔTm at 10 µM (FESA) [°C] | ΔTm at 10 µM (STK17BA) [°C] | ΔTm at 10 µM (EPHA2 (EPHA2A)) [°C] | ΔTm at 10 µM (GSG2A) [°C] | ΔTm at 10 µM (CAMK2DA) [°C] | ΔTm at 10 µM (NEK1A) [°C] | ΔTm at 10 µM (MAPK13A) [°C] | ΔTm at 10 µM (AKT3A) [°C] | ΔTm at 10 µM (MAPK1A) [°C] | ΔTm at 10 µM (EPHA7A) [°C] | ΔTm CDC42BPAA (CDC42BPAA) | IC50 (STK10 [2]) [µM] | ΔTm at 10 µM (SLK) [°C]
1 | O=C(NCc1ccccc1C(F)(F)F)Nc1ccc2cc1OCCOCCNc1ccn3ncc-2c3n1 [compound 27] | 3.9 | 10.2 | 1.5 | 0.7 | 5.1 | 0.2 | 0.7 | 2.5 | -0.4 | -0.5 | -0.1 | 0.9 | 3 | 1,0 °C | 2.36 ± 0.6 | 4.2
2 | O=C(NCc1ccc(C(F)(F)F)cc1)Nc1ccc2cc1OCCOCCNc1ccn3ncc-2c3n1 [compound 28] | 4.7 | 9.9 | 1.8 | 1 | 4.8 | 0.1 | 0.9 | 2.7 | 0 | -0.5 | 0.4 | 0.9 | 3.5 | 0,9 °C | 5 ± 0.61 | 3.1
3 | COc1ccccc1CNC(=O)Nc1ccc2cc1OCCOCCNc1ccn3ncc-2c3n1 [compound 29] | 5.5 | 7.5 | 1.5 | 2 | 1.7 | 0.4 | 0.6 | 2.1 | -0.3 | 0.02 | 0.3 | 0.7 | 1.1 | 0,3 °C | 5.2 ± 0.81 | 2.5
4 | COc1cccc(CNC(=O)Nc2ccc3cc2OCCOCCNc2ccn4ncc-3c4n2)c1 [compound 30] | 6.3 | 7.1 | 2 | 1.4 | 1.8 | 0.4 | 0.7 | 2.3 | -0.2 | -0.1 | 0.2 | 0.6 | 1.5 | 0,2 °C | 6.29 ± 1.49 | 2.1
5 | COc1ccc(CNC(=O)Nc2ccc3cc2OCCOCCNc2ccn4ncc-3c4n2)cc1F [compound 32] | 6.3 | 7.6 | 1.8 | 0.8 | 3.4 | 0.3 | 1 | 2.7 | -0.4 | -0.3 | 0.8 | 0.7 | 2.9 | 0,1 °C | 3.33 ± 0.66 | 3.6
6 | COc1cc(CNC(=O)Nc2ccc3cc2OCCOCCNc2ccn4ncc-3c4n2)ccc1F [compound 33] | 6.4 | 6.7 | 3.2 | 0.5 | 2.7 | 0.5 | 2.8 | 2.4 | -0.1 | -0.3 | 0.9 | 1.6 | 1.9 | 0,1 °C | 2.34 ± 0.79 | 2.4
7 | C[C@H](NC(=O)Nc1ccc2cc1OCCOCCNc1ccn3ncc-2c3n1)c1ccccc1 [compound 34] | 5.9 | 5.6 | 0.6 | 1.3 | 2.7 | 0.3 | 0.1 | 2.2 | -0.4 | -0.3 | 0.4 | 0.7 | 1.9 | 0,1 °C | 10.2 | 1.6
